Experimental data: PubChem BioAssay (NCI)
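Compound exposure: 48 hours, 5 concentrations, 96-well plates. GI50 is the concentration that inhibits growth by half. TGI: total growth inhibition.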

What was measured:
Test in all cases: growth of human tumour cells (NCI), 48 h
786-0 renal = tested on: 786-0 renal
SK-OV-3 ovarian = tested on: SK-OV-3 ovarian
T-47D breast = tested on: T-47D breast
NCI-H522 lung = tested on: NCI-H522 lung
HOP-62 NSCLC = tested on: HOP-62 NSCLC
CCRF-CEM leukemia = tested on: CCRF-CEM leukemia
HCT-15 colon = tested on: HCT-15 colon
UACC-257 melanoma = tested on: UACC-257 melanoma
SNB-75 CNS = tested on: SNB-75 CNS
SN12C renal = tested on: SN12C renal

SMILES | GI50 (786-0 renal) [µM] | TGI (786-0 renal) [µM] | GI50 (SK-OV-3 ovarian) [µM] | TGI (SK-OV-3 ovarian) [µM] | GI50 (T-47D breast) [µM] | TGI (T-47D breast) [µM] | GI50 (NCI-H522 lung) [µM] | TGI (NCI-H522 lung) [µM] | GI50 (HOP-62 NSCLC) [µM] | TGI (HOP-62 NSCLC) [µM] | GI50 (CCRF-CEM leukemia) [µM] | TGI (CCRF-CEM leukemia) [µM] | GI50 (HCT-15 colon) [µM] | TGI (HCT-15 colon) [µM] | GI50 (UACC-257 melanoma) [µM] | TGI (UACC-257 melanoma) [µM] | GI50 (SNB-75 CNS) [µM] | TGI (SNB-75 CNS) [µM] | GI50 (SN12C renal) [µM] | TGI (SN12C renal) [µM]
O=C(Nc1cccc(-n2cc(-c3ccncc3)c(-c3cc(O)cc(Cl)c3)n2)c1)Nc1ccc(Cl)c(C(F)(F)F)c1 | 1.83 | 4.45 | 4.11 | 30.7 | 2.44 | 9.27 | 1.32 | 4.48 | 3.08 | 13.4 | 2.73 | 8.93 | 2.21 | 6.01 | 1.99 | 5.34 | 1.49 | 6.36 | 3.45 | 17.2
O=C1C(N2CC2)=C(N2CC2)C(=O)C(N2CC2)=C1N1CC1 | < 0.0285 | 0.984 | 0.123 | 0.891 | 0.659 | 23.8 | 0.432 | 2.21 | 0.0822 | 1.05 | 1.82 | > 100 | 0.15 | 0.901 | 0.109 | 0.749 | 0.158 | 1.11 | < 0.0228 | 1.45
C=C1/C(=C\C=C2/CCC[C@]3(C)[C@@H]([C@H](C)CCCC(C)(C)O)CC[C@@H]23)C[C@@H](OC(=O)CBr)C[C@@H]1O | 0.642 | 1.89 | 14.9 | 29.5 | 2.71 | 19.3 | 0.255 | 0.83 | 12.9 | 30.5 | 0.0491 | 0.307 | 1.48 | 3.31 | 9.84 | 26.8 | < 0.0116 | 0.109 | 4.93 | 11.9
COc1cc(Nc2c(C#N)cnc3cc(OCCCN4CCN(C)CC4)c(OC)cc23)c(Cl)cc1Cl | 2.09 | 9.93 | 0.884 | 12.3 | 3.1 | 18.2 | 0.393 | 6.36 | 4.69 | 17.6 | 1.76 | 5.74 | 1.21 | 11.8 | 1.76 | 3.46 | 0.707 | 8.38 | 0.308 | 14.4
COc1cc2oc3cc(=O)cc4oc(-c5ccccc5)cc(c2c2c1CCC(c1ccccc1)O2)c43 (stereo not given) |  | > 100 |  | > 100 |  | 54.8 |  | > 100 |  | > 100 |  | > 100 |  | 91.9 |  | 69 |  | > 100 |  | > 100
COc1cc2c3c(n(CCCCN)c(=O)c2cc1OC)-c1cc2c(cc1C3=O)OCO2 | 0.172 | 0.889 | 1.23 | 9.41 | 1.22 | 10.3 | 0.259 | 9.89 | 0.322 | 1.21 | 0.0913 | 3.75 | 0.805 | 9.81 | 3.35 | 25 | 0.778 | 5.5 | 0.0583 | 0.235
Cc1ccc(-c2nc(C#N)c(S(=O)(=O)n3nc(C)cc3N)o2)cc1 | 2.35 | 6.35 | 27.5 | 71.1 | 2.27 | 5.76 | 1.65 | 3.58 | 17.7 | 35.1 | 2.55 | 7.83 | 1.9 | 3.72 | 16.5 | 30.1 | 13.7 | 27.1 | 3.65 | 13.9
